Assay results as given in the supplement of paper PMC10307832.

Assays:
Assay in all cases: relative viability (nuclei count vs DMSO), 5 days (fraction); higher = more cells survive
[1] = compound: Cc1ccc(NC(=O)c2ccc(CN3CCN(C)CC3)cc2)cc1Nc1nccc(-c2cccnc2)n1 [Imatinib] + Nc1ncn([C@H]2C[C@H](O)[C@@H](CO)O2)c(=O)n1 [Decitabine] (partner 2 µM)
Procedure, shortened: (§1)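 Dosing by pin tool came one day after lung cancer cell lines were seeded in 1536-well plates, using either one drug or a fixed anchor-drug dose plus five library-drug doses (not always all listed) in √10 steps. After 5 days, nuclei were counted on 4× images. Relative viability is treated-well nuclei count divided by vehicle-well nuclei count, and values are medians of duplicate plates.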

[2] = compound: Cc1ccc(NC(=O)c2ccc(CN3CCN(C)CC3)cc2)cc1Nc1nccc(-c2cccnc2)n1 [Imatinib] + COc1cccc2cc(-c3nc([C@H]4CC[C@H](C(=O)O)CC4)n4ncnc(N)c34)[nH]c12 [OSI-027] (partner 0.5 µM)
Procedure, shortened: as §1

[3] = compound: Cc1ccc(NC(=O)c2ccc(CN3CCN(C)CC3)cc2)cc1Nc1nccc(-c2cccnc2)n1 [Imatinib] + CCNC(=O)c1noc(-c2cc(C(C)C)c(O)cc2O)c1-c1ccc(CN2CCOCC2)cc1 [Luminespib] (partner 0.01 µM)
Procedure, shortened: as §1

[4] = compound: Cc1ccc(NC(=O)c2ccc(CN3CCN(C)CC3)cc2)cc1Nc1nccc(-c2cccnc2)n1 [Imatinib] + O=C(c1cc(Cc2n[nH]c(=O)c3ccccc23)ccc1F)N1CCN(C(=O)C2CC2)CC1 [Olaparib] (partner 8 µM)
Procedure, shortened: as §1

[5] = compound: Cc1ccc(NC(=O)c2ccc(CN3CCN(C)CC3)cc2)cc1Nc1nccc(-c2cccnc2)n1 [Imatinib] + Cc1cc(Nc2cc(N3CCN(C)CC3)nc(Sc3ccc(NC(=O)C4CC4)cc3)n2)n[nH]1 [Tozasertib] (partner 0.1 µM)
Procedure, shortened: as §1

[6] = compound: Cc1ccc(NC(=O)c2ccc(CN3CCN(C)CC3)cc2)cc1Nc1nccc(-c2cccnc2)n1 [Imatinib] + N=C(N)NC(=N)NCCc1ccccc1 [Phenformin] (partner 250 µM)
Procedure, shortened: as §1

[7] = compound: Cc1ccc(NC(=O)c2ccc(CN3CCN(C)CC3)cc2)cc1Nc1nccc(-c2cccnc2)n1 [Imatinib]
Procedure, shortened: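 Viability was defined as treated-well nuclei divided by vehicle-well nuclei, with the median taken over replicate plates. Cells from lung cancer lines sat overnight at 37 °C in 1536-well plates, received five √10-spaced library-drug doses by pinning on vehicle-anchored plates, and grew 5 days without medium change before one-step fixation, permeabilisation and Hoechst staining, 4× imaging and MetaXpress nuclear counts. Only plates with control CV under 25% and at least one doubling were kept.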

[8] = compound: Cc1ccc(NC(=O)c2ccc(CN3CCN(C)CC3)cc2)cc1Nc1nccc(-c2cccnc2)n1 [Imatinib] + CC(=O)c1c(C)c2cnc(Nc3ccc(N4CCNCC4)cn3)nc2n(C2CCCC2)c1=O [Palbociclib] (partner 0.5 µM)
Procedure, shortened: as §1

[9] = compound: Cc1ccc(NC(=O)c2ccc(CN3CCN(C)CC3)cc2)cc1Nc1nccc(-c2cccnc2)n1 [Imatinib] + CC(=O)Nc1cccc(-n2c(=O)n(C3CC3)c(=O)c3c(Nc4ccc(I)cc4F)n(C)c(=O)c(C)c32)c1 [Trametinib] (partner 0.02 µM)
Procedure, shortened: as §1

[10] = compound: Cc1ccc(NC(=O)c2ccc(CN3CCN(C)CC3)cc2)cc1Nc1nccc(-c2cccnc2)n1 [Imatinib] + Nc1nc2[nH]cc(CCc3ccc(C(=O)N[C@@H](CCC(=O)O)C(=O)O)cc3)c2c(=O)[nH]1 [Pemetrexed] (partner 0.2 µM)
Procedure, shortened: as §1

[11] = compound: Cc1ccc(NC(=O)c2ccc(CN3CCN(C)CC3)cc2)cc1Nc1nccc(-c2cccnc2)n1 [Imatinib] + COc1cc2c(Oc3ccc(NC(=O)C4(C(=O)Nc5ccc(F)cc5)CC4)cc3F)ccnc2cc1OCCCN1CCOCC1 [Foretinib] (partner 0.25 µM)
Procedure, shortened: as §1

[12] = compound: Cc1ccc(NC(=O)c2ccc(CN3CCN(C)CC3)cc2)cc1Nc1nccc(-c2cccnc2)n1 [Imatinib] + NC(=O)Nc1cc(-c2cccc(F)c2)sc1C(=O)N[C@H]1CCCNC1 [AZD7762] (partner 0.2 µM)
Procedure, shortened: as §1

[13] = compound: Cc1ccc(NC(=O)c2ccc(CN3CCN(C)CC3)cc2)cc1Nc1nccc(-c2cccnc2)n1 [Imatinib] + O=C(CCCCCCC(=O)Nc1ccccc1)NO [Vorinostat] (partner 1 µM)
Procedure, shortened: as §1

[14] = compound: Cc1ccc(NC(=O)c2ccc(CN3CCN(C)CC3)cc2)cc1Nc1nccc(-c2cccnc2)n1 [Imatinib] + Cc1nc(Nc2ncc(C(=O)Nc3c(C)cccc3Cl)s2)cc(N2CCN(CCO)CC2)n1 [Dasatinib] (partner 0.075 µM)
Procedure, shortened: as §1

NCI-H522
relative viability ([1]; first compound 0.02 µM): 0.678 | relative viability ([1]; first compound 0.2 µM): 0.616 | relative viability ([1]; first compound 0.6325 µM): 0.577 | relative viability ([1]; first compound 2 µM): 0.675 | relative viability ([2]; first compound 0.02 µM): 1.34 | relative viability ([2]; first compound 0.06325 µM): 0.505 | relative viability ([2]; first compound 2 µM): 0.666 | relative viability ([3]; first compound 0.02 µM): 1.11 | relative viability ([3]; first compound 0.06325 µM): 1.16 | relative viability ([3]; first compound 0.2 µM): 1.14 | relative viability ([3]; first compound 0.6325 µM): 1.15 | relative viability ([3]; first compound 2 µM): 1.11 | relative viability ([4]; first compound 0.2 µM): 0.641 | relative viability ([4]; first compound 0.6325 µM): 0.606 | relative viability ([5]; first compound 0.06325 µM): 0.501 | relative viability ([5]; first compound 0.2 µM): 0.524 | relative viability ([5]; first compound 0.6325 µM): 0.553 | relative viability ([5]; first compound 2 µM): 0.588 | relative viability ([6]; first compound 0.02 µM): 0.679 | relative viability ([6]; first compound 0.06325 µM): 0.554 | relative viability ([6]; first compound 0.2 µM): 0.626 | relative viability ([6]; first compound 0.6325 µM): 0.613

SW 900
relative viability ([7]; 0.02 µM): 0.806 | relative viability ([7]; 0.06325 µM): 0.712 | relative viability ([7]; 0.2 µM): 0.941 | relative viability ([7]; 0.6325 µM): 0.896 | relative viability ([7]; 2 µM): 0.855 | relative viability ([8]; first compound 0.02 µM): 0.549 | relative viability ([8]; first compound 0.06325 µM): 0.644 | relative viability ([8]; first compound 0.2 µM): 0.617 | relative viability ([8]; first compound 0.6325 µM): 0.566 | relative viability ([8]; first compound 2 µM): 0.588 | relative viability ([1]; first compound 0.02 µM): 0.37 | relative viability ([1]; first compound 0.06325 µM): 0.467 | relative viability ([1]; first compound 0.2 µM): 0.499 | relative viability ([1]; first compound 0.6325 µM): 0.468 | relative viability ([1]; first compound 2 µM): 0.411 | relative viability ([2]; first compound 0.02 µM): 0.564 | relative viability ([2]; first compound 0.06325 µM): 0.397 | relative viability ([2]; first compound 0.2 µM): 0.548 | relative viability ([2]; first compound 0.6325 µM): 0.583 | relative viability ([2]; first compound 2 µM): 0.496 | relative viability ([3]; first compound 0.02 µM): 0.201 | relative viability ([3]; first compound 0.06325 µM): 0.146 | relative viability ([3]; first compound 0.2 µM): 0.168 | relative viability ([3]; first compound 0.6325 µM): 0.175 | relative viability ([3]; first compound 2 µM): 0.161 | relative viability ([9]; first compound 0.02 µM): 0.776 | relative viability ([9]; first compound 0.06325 µM): 0.625 | relative viability ([9]; first compound 0.2 µM): 0.641 | relative viability ([9]; first compound 0.6325 µM): 0.756 | relative viability ([9]; first compound 2 µM): 0.76 | relative viability ([4]; first compound 0.02 µM): 0.909 | relative viability ([4]; first compound 0.06325 µM): 1.08 | relative viability ([4]; first compound 0.2 µM): 1.05 | relative viability ([4]; first compound 0.6325 µM): 0.711 | relative viability ([4]; first compound 2 µM): 0.731 | relative viability ([5]; first compound 0.02 µM): 0.51 | relative viability ([5]; first compound 0.06325 µM): 0.404 | relative viability ([5]; first compound 0.2 µM): 0.712 | relative viability ([5]; first compound 0.6325 µM): 0.469 | relative viability ([5]; first compound 2 µM): 0.348 | relative viability ([10]; first compound 0.02 µM): 0.465 | relative viability ([10]; first compound 0.06325 µM): 0.393 | relative viability ([10]; first compound 0.2 µM): 0.418 | relative viability ([10]; first compound 0.6325 µM): 0.47 | relative viability ([10]; first compound 2 µM): 0.425 | relative viability ([11]; first compound 0.02 µM): 0.879 | relative viability ([11]; first compound 0.06325 µM): 1.04 | relative viability ([11]; first compound 0.2 µM): 1.09 | relative viability ([11]; first compound 0.6325 µM): 0.717 | relative viability ([11]; first compound 2 µM): 1.04 | relative viability ([12]; first compound 0.02 µM): 0.784 | relative viability ([12]; first compound 0.06325 µM): 0.572 | relative viability ([12]; first compound 0.2 µM): 0.605 | relative viability ([12]; first compound 0.6325 µM): 0.619 | relative viability ([12]; first compound 2 µM): 0.529 | relative viability ([6]; first compound 0.02 µM): 0.57 | relative viability ([6]; first compound 0.06325 µM): 0.474 | relative viability ([6]; first compound 0.2 µM): 0.821 | relative viability ([6]; first compound 0.6325 µM): 0.578 | relative viability ([6]; first compound 2 µM): 0.499 | relative viability ([13]; first compound 0.02 µM): 0.615 | relative viability ([13]; first compound 0.06325 µM): 0.564 | relative viability ([13]; first compound 0.2 µM): 0.538 | relative viability ([13]; first compound 0.6325 µM): 0.654 | relative viability ([13]; first compound 2 µM): 0.409 | relative viability ([14]; first compound 0.02 µM): 0.552 | relative viability ([14]; first compound 0.06325 µM): 0.412 | relative viability ([14]; first compound 0.2 µM): 0.641 | relative viability ([14]; first compound 0.6325 µM): 0.48 | relative viability ([14]; first compound 2 µM): 0.567
